Among the data in PubChem BioAssay AID256 (DTP/NCI, 2004) are T/C values, retold here.

Where “and” joins values, the source holds several entries; their conditions need not be identical. Identical values can stand only once. Toxic doses and inconclusive results are not listed.

This experiment concerns CD2F1 mice, L1210 leukemia ip, survival T/C. Kind of experiment: NCI In Vivo Anticancer Drug Screen. Data for tumor model L1210 Leukemia (intraperitoneal) in CD2F1 (CDF1) mice. Particulars: higher = longer survival. In short, it runs like this: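 Activity against a transplanted murine tumor was judged by comparing the compound group with a vehicle group. The outcome in the treated animals was divided by that in the controls.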

Setting [1] is: endpoint: mean survival time, dose: 25.0 mg/kg/injection, schedule: Q01DX009 (ip), vehicle: saline with Tween-80.
Where [2] appears, read: endpoint: mean survival time, dose: 50.0 mg/kg/injection, schedule: Q01DX009 (ip), vehicle: saline with Tween-80.
The mark [3] stands for this setting: endpoint: mean survival time, dose: 100.0 mg/kg/injection, schedule: Q01DX009 (ip), vehicle: saline with Tween-80.
Where [4] appears, read: endpoint: mean survival time, dose: 200.0 mg/kg/injection, schedule: Q01DX009 (ip), vehicle: saline with Tween-80.
[5] abbreviates: endpoint: mean survival time, dose: 100.0 mg/kg/injection, schedule: Q04DX003 (ip), vehicle: saline with Tween-80.
[6] abbreviates: endpoint: mean survival time, dose: 12.5 mg/kg/injection, schedule: Q04DX002 (ip), vehicle: saline with Tween-80.
Where [7] appears, read: endpoint: mean survival time, dose: 25.0 mg/kg/injection, schedule: Q04DX002 (ip), vehicle: saline with Tween-80.
The mark [8] stands for this setting: endpoint: mean survival time, dose: 50.0 mg/kg/injection, schedule: Q04DX002 (ip), vehicle: saline with Tween-80.

As for `CC1(C)N=C(N)N=C(N)N1c1ccc(CCc2ccccc2)cc1`, the T/C reads like this: (endpoint: mean survival time, dose: 12.5 mg/kg/injection, schedule: Q01DX009 (ip), vehicle: saline with Tween-80) 95 % of control; under setting [1], 87 % of control.

Regarding `CCCCOC(=O)c1ccccn1`, the T/C reads like this: under setting [2], 101 % of control; under setting [3], 95 % of control; under setting [4], 98 % of control.

As to `CCC/C(=N\Nc1ccc([N+](=O)[O-])cc1[N+](=O)[O-])c1ccccc1`, the T/C is 94 % of control under setting [1]; 104 % of control (endpoint: mean survival time, dose: 25.0 mg/kg/injection, schedule: Q04DX003 (ip), vehicle: saline with Tween-80); 105 % of control under setting [2]; 115 % of control (endpoint: mean survival time, dose: 50.0 mg/kg/injection, schedule: Q04DX003 (ip), vehicle: saline with Tween-80); 94 % of control under setting [3]; 98 % of control under setting [5].

With `CCCC(C)(C)c1ccccc1`, the T/C was 104 % of control under setting [2], 96 % of control under setting [3] and 89 % of control under setting [4].

`O=C(O)C1CCC[N-]C1.O=C(O)C1CCC[N-]C1.[Cl][Pt+2][Cl]` (centres undefined): the T/C by setting is: (endpoint: mean survival time, dose: 5.0 mg/kg/injection, schedule: Q04DX003 (ip), vehicle: saline with Tween-80) 95 % of control; (endpoint: mean survival time, dose: 10.0 mg/kg/injection, schedule: Q04DX003 (ip), vehicle: saline with Tween-80) 112 % of control; (endpoint: mean survival time, dose: 20.0 mg/kg/injection, schedule: Q04DX003 (ip), vehicle: saline with Tween-80) 107 % of control.

As for `CC1=CC(=O)C(C(C)C)=CC1=O`, the T/C is 101 % of control under setting [1], 108 % of control under setting [2] and 88 % of control under setting [5].

As to `COc1cccc2c1C(=O)c1c(O)c3c(c(O)c1C2=O)C[C@](O)(C(=O)CO)CC3OC1CC(N)C(OC2CCCCO2)C(C)O1` (some centres undefined), the T/C was 123 % of control and 227 % of control (endpoint: median survival time, dose: 3.0 mg/kg/injection, schedule: Q01DX009 (ip), vehicle: water); 91 % of control (endpoint: median survival time, dose: 6.0 mg/kg/injection, schedule: Q01DX009 (ip), vehicle: water).

Consider `CC(C)(C)c1cc(C(C)(C)C)nc([N+](C)(C)C)c1`, for which the T/C is 108 % of control under setting [6], 101 % of control under setting [7] and 101 % of control under setting [8].

With `CCN(CC)CCOCCO`, the T/C reads like this: (endpoint: mean survival time, dose: 100.0 mg/kg/injection, schedule: Q01DX009 (ip), vehicle: saline) 102 % of control; (endpoint: mean survival time, dose: 200.0 mg/kg/injection, schedule: Q01DX009 (ip), vehicle: saline) 96 % of control.

Regarding `O=C(O)c1ccccc1C(=O)Nc1ccc(Cl)cc1`, the T/C is 95 % of control under setting [3]; 94 % of control under setting [5]; 89 % of control under setting [4]; 96 % of control (endpoint: mean survival time, dose: 200.0 mg/kg/injection, schedule: Q04DX003 (ip), vehicle: saline with Tween-80); 86 % of control (endpoint: mean survival time, dose: 400.0 mg/kg/injection, schedule: Q04DX003 (ip), vehicle: saline with Tween-80).

Regarding `CCSc1nc(N)c2ncn(C3OC(C)C(O)C(O)C3O)c2n1` (centres undefined), the T/C reads like this: (endpoint: median survival time, dose: 12.5 mg/kg/injection, schedule: Q01DX005 (ip), vehicle: saline with Tween-80) 106 % of control; (endpoint: median survival time, dose: 25.0 mg/kg/injection, schedule: Q01DX005 (ip), vehicle: saline with Tween-80) 101 % of control; (endpoint: median survival time, dose: 50.0 mg/kg/injection, schedule: Q01DX005 (ip), vehicle: saline with Tween-80) 94 % of control; (endpoint: median survival time, dose: 100.0 mg/kg/injection, schedule: Q01DX005 (ip), vehicle: saline with Tween-80) 103 % of control; (endpoint: median survival time, dose: 200.0 mg/kg/injection, schedule: Q01DX005 (ip), vehicle: saline with Tween-80) 100 % of control.

In the case of `COc1cc(C=C2C(=O)C=CC2=O)ccc1O`, the T/C runs as follows: (endpoint: mean survival time, dose: 3.13 mg/kg/injection, schedule: Q04DX002 (ip), vehicle: saline with Tween-80) 108 % of control; (endpoint: mean survival time, dose: 6.25 mg/kg/injection, schedule: Q04DX002 (ip), vehicle: saline with Tween-80) 100 % of control; under setting [6], 106 % of control.

For `CC(C#N)CCCC#N` (centres undefined), the T/C by setting is: under setting [1], 100 % of control; under setting [2], 102 % of control; under setting [5], 101 % of control.

Turning to `CCCCCC(CN(C)C)C(=O)/C=C/c1ccc(Cl)c(Cl)c1` (centres undefined), the T/C is, setting by setting: (endpoint: mean survival time, dose: 6.25 mg/kg/injection, schedule: Q01DX009 (ip), vehicle: acetone) 92 % of control; (endpoint: mean survival time, dose: 12.5 mg/kg/injection, schedule: Q01DX009 (ip), vehicle: acetone) 94 % of control; (endpoint: mean survival time, dose: 25.0 mg/kg/injection, schedule: Q01DX009 (ip), vehicle: acetone) 97 % of control.

On to `Cc1ccc([P+](=O)O)cc1Cl`, for which the T/C runs as follows: (endpoint: mean survival time, dose: 100.0 mg/kg/injection, schedule: Q04DX003 (ip), vehicle: saline) 102 % of control; (endpoint: mean survival time, dose: 200.0 mg/kg/injection, schedule: Q04DX003 (ip), vehicle: saline) 97 % of control; (endpoint: mean survival time, dose: 400.0 mg/kg/injection, schedule: Q04DX003 (ip), vehicle: saline) 103 % of control.

Consider `CNc1ccn(C2OC(CO)C(O)C2SC(C)(C)C)c(=O)n1` (centres undefined), for which the T/C by setting is: (endpoint: median survival time, dose: 12.5 mg/kg/injection, schedule: Q01DX005 (ip), vehicle: saline) 105 % of control; (endpoint: median survival time, dose: 25.0 mg/kg/injection, schedule: Q01DX005 (ip), vehicle: saline) 105 % of control; (endpoint: median survival time, dose: 50.0 mg/kg/injection, schedule: Q01DX005 (ip), vehicle: saline) 100 % of control; (endpoint: median survival time, dose: 100.0 mg/kg/injection, schedule: Q01DX005 (ip), vehicle: saline) 102 % of control; (endpoint: median survival time, dose: 200.0 mg/kg/injection, schedule: Q01DX005 (ip), vehicle: saline) 100 % of control.

Turning to `COC1OC(OC2OC=C3C(=O)OC4CC(C)C2C34)C(O)C(O)C1O` (centres undefined), the T/C by setting is: (endpoint: median survival time, dose: 4.0 mg/kg/injection, schedule: Q01DX005 (ip), vehicle: Klucel (hydroxypropylcellulose) (HPC)) 104 % of control; (endpoint: median survival time, dose: 8.0 mg/kg/injection, schedule: Q01DX005 (ip), vehicle: Klucel (hydroxypropylcellulose) (HPC)) 101 % of control; (endpoint: median survival time, dose: 16.0 mg/kg/injection, schedule: Q01DX005 (ip), vehicle: Klucel (hydroxypropylcellulose) (HPC)) 104 % of control; (endpoint: median survival time, dose: 32.0 mg/kg/injection, schedule: Q01DX005 (ip), vehicle: Klucel (hydroxypropylcellulose) (HPC)) 109 % of control.

In the case of `Cc1ccc(OCC2CO2)cc1` (centres undefined), the T/C by setting is: (endpoint: mean survival time, dose: 100.0 mg/kg/injection, schedule: Q01DX001 (ip), vehicle: saline) 104 % of control; (endpoint: mean survival time, dose: 200.0 mg/kg/injection, schedule: Q01DX001 (ip), vehicle: saline) 95 % of control; (endpoint: mean survival time, dose: 400.0 mg/kg/injection, schedule: Q01DX001 (ip), vehicle: saline) 102 % of control.

For the compound `CCCCCCCCN(C=O)CCCCCCCC`, the T/C is 93 % of control under setting [7]; 96 % of control under setting [8]; 104 % of control (endpoint: mean survival time, dose: 100.0 mg/kg/injection, schedule: Q04DX002 (ip), vehicle: saline with Tween-80).
